Data as given in US11168319B1, “Plant cell culture” (Inari Agriculture Technology, Inc., priority 2017, dated 2021).
Values joined by “and” are separate entries in the source; they are usually repeats but may differ in a detail not shown here. Identical values can stand only once. Like-named read-outs stand apart in the source and are kept apart here.

How the values were obtained:
maize B73 protoplasts = conditions: for Viability (%): 100 mM Ca; for protoplast viability: 288 hours, YPIM B- medium
Procedure: Separate suspensions of maize B73 and A188 protoplasts (2×10^5 cells per milliliter) were prepared in YPIM B-liquid medium containing various combinations of the added salts calcium chloride, potassium ascorbate, and magnesium chloride or magnesium sulfate. One-half milliliter aliquots of the suspensions were dispensed into a 24-well microtiter plate in the arrangement shown in Table 2, which lists the concentrations of calcium chloride (“Ca”), potassium ascorbate (“A”), and magnesium chloride (“MgCl2”) or magnesium sulfate (“MgSO4”) in millimolar values.
Viability was judged by Evans blue staining and visualization under a light microscope.
Separate suspensions of maize B73, winter wheat, soy, and strawberry protoplasts (2×10^5 cells per milliliter) were prepared in YPIM B-liquid medium containing calcium chloride at 0, 50, or 100 millimolar. One-half milliliter aliquots of the suspensions were dispensed into a 24-well microtiter plate.
Viability at day 8 of culture was judged by visualization under a light microscope.
Viability at day 13 was judged by Evans blue staining and visualization under a light microscope.
Separate suspensions of maize B73 protoplasts (2×10^5 cells per milliliter) were prepared in PIM B-liquid medium (identical to YPIM B-medium except with the 6-benzylaminopurine substituted with 0.022 milligrams/L thidiazuron) containing calcium chloride added at 0, 5, 20, 40, 70, or 100 millimolar. One-half milliliter aliquots of the suspensions were dispensed into a 24-well microtiter plate.
Viability was judged by visualization under a light microscope at day 7 and at day 14 of culture.
Separate suspensions of maize B73 and A188 protoplasts (2×10^5 cells per milliliter) were prepared in PIM B-liquid medium (identical to YPIM B-medium except with the 6-benzylaminopurine substituted with 0.022 milligrams/L thidiazuron) containing calcium chloride added at 0 or 50 millimolar. One-half milliliter aliquots of the suspensions were dispensed into a 24-well microtiter plate.
(§1) Viability was judged by visualization under a light microscope.
Separate suspensions of maize B73 and A188 protoplasts (2×10^5 cells per milliliter) were prepared in YPIM B-liquid medium containing (a) calcium chloride added at 100 millimolar, or (b) 1 millimolar glutathione, or (c) no added calcium or glutathione. One-milliliter aliquots of the suspensions were dispensed into a 24-well microtiter plate. At 16, 40, 64, and 136 hours of culture, 50-microliter samples were taken for hemocytometer analysis from each well; for the plates containing maize A188 protoplasts, parallel 50-microliter samples were taken from a replicate well at 16, 40, and 64 hours of culture for quantification using a Cellometer cell counter (Nexcelom Bioscience LLC, Lawrence, Mass.).
Viability was determined by Evans blue staining and quantification using a hemocytometer. Under conditions with high concentrations of calcium, Evans blue can create precipitates that interfere with cell counting; to prevent this, 5 microliters of an EDTA solution was added to the samples from the wells containing 100 millimolar calcium chloride immediately prior to staining.

soybean protoplasts = assay: Protoplast viability (Evans blue staining, light microscope); assay type: cell-based
maize HiIIA protoplasts = assay: Cell division rate by EdU staining (% EdU); assay type: cell-based; conditions: 100 mM Ca^2+
Procedure: (§2) Cell division was monitored, e.g., by microscopic observations. […] Evidence of cell division was observed by microscopy and included increased cell or protoplast size, bulging membranes, and large groups of organelles occupying the separating daughter cells. Quantification of cell division was carried out using fluorescent staining. Cells were treated with the thymidine analogue 5-ethynyl-2′-deoxyuridine (EdU), which is incorporated into DNA during S-phase and can be fluorescently activated using a fluorochrome that has been conjugated to an azide molecule. Cells that are the result of cellular division in the presence of EdU were identified by the resulting green fluorescent signal, which can be quantified by various means, e.g., with a microplate reader, cell counter, or cell sorter.
In a separate experiment, maize HiIIA protoplasts were grown in 24-well plates using YPIM B-liquid medium containing 100 millimolar Ca^2+ and 20 micromolar EdU. Identical plates were incubated under hypoxia (5% oxygen by volume, 26 degrees Celsius, 80% relative humidity) or ambient oxygen (21% oxygen by volume, 26 degrees Celsius, 80% relative humidity). Entire wells (250 microliters) were taken for EdU detection at four time points. The contents of each well was centrifuged and the pellet subjected to the Click-iT™ EdU Alexa Fluor™ 488 Imaging Kit (catalogue number C10337, Thermo Fisher Scientific, Waltham, Mass.) fluorescent labelling protocol. The labelled protoplasts were resuspended in YPIM B-medium and samples analyzed on a Nexcelom Cellometer (Nexcelom Bioscience LLC, Lawrence, Mass.). This assay was developed to detect the EdU signal from the nucleus of a cell resulting from cell division, as well as the fluorescent signal from chloroplasts as a measure of total cell count. Results are provided in Table 4 as a percentage of cells displaying the EdU signal relative to the total cell count (“% EdU”).

[1] = test system: maize protoplasts (A188, B73, B104, HiIIA, HiIIB); assay: Protoplast viability by light microscope, five maize germplasm lines; assay type: cell-based; conditions: 34 hours, across the five maize lines
Description: as §1

maize A188 protoplasts = assay: Signs of cell division by microscopy under 5% or 21% oxygen; assay type: cell-based; conditions: day 8, 100 millimolar Ca^2+ in YPIM B-, 5% oxygen vs 21% oxygen by volume
Procedure: as §2
In one experiment, maize A188 protoplasts were grown under either 5% or 21% oxygen by volume in YPIM B-liquid medium containing 100 millimolar Ca^2+.

[2] = test system: winter wheat, soy, and strawberry protoplasts; assay: Protoplast viability by light microscope, other species; assay type: cell-based; conditions: day 8, 0, 50 or 100 millimolar calcium
[3] = day 13, 50 millimolar calcium, Evans blue

SMILES: [Ca+2].[Cl-].[Cl-] [calcium chloride]
- Viability (%) (maize B73 protoplasts; 0 hours, hemocytometer): 90%
- Viability (%) (maize B73 protoplasts; 16 hours): 65%
- Viability (%) (maize B73 protoplasts; 40 hours): 57%
- Viability (%) (maize B73 protoplasts; 64 hours): 58%
- Viability (%) (maize B73 protoplasts; 136 hours): 30%
- protoplast viability (maize B73 protoplasts; 50 mM added salt): almost all dead
- protoplast viability (maize B73 protoplasts; 100 mM added salt): 10-20%
- viability and cell division (maize B73 protoplasts; PIM B- medium, 100 millimolar calcium): strongest enhanced viability and cell division
- viability (maize B73 protoplasts; day 6, PIM B- medium, 50 millimolar calcium): still contained viable cells
- viability and cell division (maize B73 protoplasts; day 7, PIM B- medium, 40, 70, or 100 millimolar calcium): formed clusters of viable, healthy cells with cell division occurring
- viability (maize B73 protoplasts; day 7, PIM B- medium, less than 40 millimolar calcium): dead
- viability (maize B73 protoplasts; day 8, 50 millimolar calcium, YPIM B-, light microscope): 30%
- viability (maize B73 protoplasts; day 8, 100 millimolar calcium, YPIM B-, light microscope): 80%
- viability (maize B73 protoplasts; [3]): 0%
- viability of the maize protoplasts (second statement in the sentence) (maize B73 protoplasts; [3]): 50%
- viability (maize B73 protoplasts; day 13, 100 millimolar calcium, Evans blue): 10%
- viability (soybean protoplasts; day 13, 50 millimolar calcium): 50%
- viability (soybean protoplasts; day 13, 100 millimolar calcium): 50%
- % EdU (maize HiIIA protoplasts; 5% oxygen by volume, 93 hours): 12%
- % EdU (maize HiIIA protoplasts; 5% oxygen by volume, 117 hours): 19%
- % EdU (maize HiIIA protoplasts; 5% oxygen by volume, 165 hours, listed as Ca^2+): 19% and 15%
- % EdU (maize HiIIA protoplasts; 21% oxygen by volume, 93 hours): 6.5%
- % EdU (maize HiIIA protoplasts; 21% oxygen by volume, 117 hours, listed as Ca^2+): 6.9% and 8.0%
- % EdU (maize HiIIA protoplasts; 21% oxygen by volume, 141 hours, listed as Ca^2+): 13% and 4.8%
- % EdU (maize HiIIA protoplasts; 21% oxygen by volume, 165 hours, listed as Ca^2+): 5.0% and 0.0%
- viability ([1]; 50 millimolar calcium): about 55%
- viability ([1]; 100 millimolar calcium): about 70%
- plant protoplast viability (plant protoplasts; about 40 millimolar or about 50 millimolar): Even higher levels of plant protoplast viability
- protoplast viability (plant protoplasts; between or about 50 to about 100 millimolar, several titration experiments): greatest improvement in protoplast viability
- plant protoplast viability (plant protoplasts; culture medium contains about 30 millimolar): Beneficial effects
- signs of cell division (maize A188 protoplasts): many more protoplasts displaying signs of cell division
- viability [2]: no large differences
